In data set [1] the test system is Ae. albopictus. The experiment in a line: Repellence bioassay, human hand landing counts. The format is in vivo, Aedes albopictus.
The target of data set [2] is T1, AaegORco (Aedes aegypti, UniProt Q178U6).
T1 construct: expressed in transfected cells; host or cells: Xenopus laevis oocytes microinjected with cRNA transcribed from the pSP64tRFA vector
T1 sequence (Q178U6 1-478): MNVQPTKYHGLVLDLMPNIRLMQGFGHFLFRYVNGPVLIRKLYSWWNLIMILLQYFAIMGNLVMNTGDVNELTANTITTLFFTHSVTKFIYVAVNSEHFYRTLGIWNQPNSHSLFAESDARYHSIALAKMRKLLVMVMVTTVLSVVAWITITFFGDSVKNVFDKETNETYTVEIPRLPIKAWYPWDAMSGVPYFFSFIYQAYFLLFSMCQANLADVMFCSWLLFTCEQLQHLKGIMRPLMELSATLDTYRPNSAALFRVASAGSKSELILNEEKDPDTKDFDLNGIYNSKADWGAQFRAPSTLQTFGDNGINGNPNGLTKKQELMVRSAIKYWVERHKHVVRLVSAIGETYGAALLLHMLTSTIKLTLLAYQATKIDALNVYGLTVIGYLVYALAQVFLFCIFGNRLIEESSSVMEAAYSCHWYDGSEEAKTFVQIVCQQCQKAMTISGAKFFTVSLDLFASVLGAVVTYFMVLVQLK
As to the kind of experiment: Two-microelectrode voltage-clamp recordings of Xenopus laevis oocytes expressing AaegORco, VUAA1-induced currents. Type of data set: cell-based. The following applies: 200 μM VUAA1 with equimolar compound; for Normalized response (%) of AaegORco to VUAA1 in combination with compound: printed in picture Fig. 4B. As to the method: Across all treatments, we observed a consistent increase in the third VUAA1-induced response relative to the first and second VUAA1 administrations (Fig. 4A). For this reason, the inhibition level (Fig. 4B) was calculated by normalizing the response amplitude elicited by the second stimulation, to the average current responses elicited by the first and last VUAA1 stimulations.
In vitro transcription and two-microelectrode voltage-clamp electrophysiological recordings were performed as described ([62]). Briefly, ORco of Ae. aegypti (AaegORco; GenBank: BK006142.1) was synthesized using the mMESSAGE mMACHINE SP6 kit (ThermoFisher Scientific) from the linearized pSP64tRFA expression vector. The harvested X. laevis oocytes were manually separated from the ovaries prior to collagenase treatment (8 mg/ml, 30 min, 18 °C) in order to remove the follicular layer. Stage V–VI oocytes were rinsed in washing solution (96 mM NaCl, 2 mM KCl, 5 mM MgCl2, and 5 mM Hepes, pH 7.6) and microinjected with a mixture of 1 μl AaegOrco (3 μg/μl) and 2 μl of double-distilled water. Injected oocytes were incubated at 18 °C for 3 days in Ringer’s solution (96 mM NaCl, 2 mM KCl, 5 mM MgCl2, 0.8 mM CaCl2, and 5 mM Hepes, pH 7.6) supplemented with 5% dialyzed horse serum, 50 μg/ml tetracycline, 100 μg/ml streptomycin, and 550 μg/ml sodium pyruvate. Whole-cell currents were recorded using the two-microelectrode voltage-clamp technique. During recording sessions, the holding potential was maintained at −80 mV using an OC-725C oocyte clamp (Warner Instruments, LLC). Oocytes were placed in a RC-3Z oocyte recording chamber (Warner Instruments) and exposed for 8 s to 200 μM VUAA1 (Innovapharm Ltd), 2,4-octadienal predominantly trans (Sigma-Aldrich), or carvacrol (Sigma-Aldrich). All compounds were solubilized in 200 μl of DMSO prior to the dilutions in the Ringer’s solution. Currents were allowed to return to baseline between odorant applications. Data acquisition and concentration–response analyses were carried out with a Digidata 1550A and the pCLAMP10 software (Molecular Devices). Statistical significance was evaluated with one-way ANOVA followed by Tukey's post test.

The subject of data set [3] is Bm5 cells. The experiment in a line: Toxicity to the AgamORco/Photina-expressing Bm5 cells during dose-response evaluation. The format is cell-based. The following applies: Bombyx mori, Bm5 cells stably expressing AgamORco and Photina.
Data set [4] concerns the target T2, AgamORco (Anopheles gambiae, UniProt Q7QCC7).
T2 sequence (Q7QCC7 1-478): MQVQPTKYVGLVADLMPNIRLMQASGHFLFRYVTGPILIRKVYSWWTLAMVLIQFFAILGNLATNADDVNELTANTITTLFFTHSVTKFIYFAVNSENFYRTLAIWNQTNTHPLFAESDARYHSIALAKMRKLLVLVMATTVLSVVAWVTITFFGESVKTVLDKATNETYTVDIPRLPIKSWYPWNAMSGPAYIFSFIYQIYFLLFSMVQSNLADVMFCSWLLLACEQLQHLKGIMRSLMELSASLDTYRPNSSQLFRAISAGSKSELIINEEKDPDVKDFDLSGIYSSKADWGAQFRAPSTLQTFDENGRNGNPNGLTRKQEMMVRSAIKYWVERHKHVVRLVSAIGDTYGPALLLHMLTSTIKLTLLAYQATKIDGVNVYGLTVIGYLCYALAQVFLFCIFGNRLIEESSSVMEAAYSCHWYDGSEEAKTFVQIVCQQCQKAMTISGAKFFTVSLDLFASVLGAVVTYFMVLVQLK
The experiment in a line: cell-based.

[5] abbreviates: 0.2 μL equivalent per cm^2, 5 min.
The mark [6] stands for this setting: 0.01 μL equivalent per cm^2, 5 min.
Where [7] appears, read: 0.04 μL equivalent per cm^2, 5 min.
Where [8] appears, read: 50 μM ORcoRAM2 (OA), read-out: IC50 in binding competition assay.
The mark [9] stands for this setting: 50 μM ORcoRAM2 (OA), read-out: pIC50 in binding competition assay (converted).
Where [10] appears, read: 100 μM ORcoRAM2 (OA), read-out: IC50, inhibition of OA-dependent AgamORco channel activity.
[11] abbreviates: 100 μM ORcoRAM2 (OA), read-out: pIC50, inhibition of OA-dependent AgamORco channel activity (converted).
Setting [12] is: 150 μM ORcoRAM2 (OA), read-out: IC50 in binding competition assay.
[13] abbreviates: 150 μM ORcoRAM2 (OA), read-out: pIC50 in binding competition assay (converted).

SMILES strings stand for the structures. Several values for one entry are separate records, joined by “and”; a condition that tells them apart may be missing. Equal entries are not always repeated. Where two headings read alike, the source gives them in different places.

Data on eight compounds can be found in paper PMC7948460, “Volatile allosteric antagonists of mosquito odorant receptors inhibit human-host attraction” (The Journal of Biological Chemistry, 2020).

For `CC(C)OC(=O)C=Cc1ccccc1` [IPC, Isopropyl cinnamate, reference compound], the Mean % repellency in data set [1] (setting [5]) was found to be 96 ± 1.6%. In addition, in data set [1] (0.2 μL per cm2, 5 min), the “Average landings (+ st. dev)” value was 2.1±0.8.
For `CCN(CC)C(=O)c1cccc(C)c1` [DEET, N,N-Diethyl-3-methylbenzamide, reference compound], the Mean % repellency in data set [1] (setting [6]) is 96.7% and 96.7 ± 2.6%; in data set [1] (setting [7]), 100 ± 0%; in data set [1] (setting [5]), 100 ± 0%. For the same compound, the “Average landings (+ st. dev)” value came to 1.8±1.4 in data set [1] (0.01 μL per cm2, 5 min); 0±0 in data set [1] (0.04 μL per cm2, 5 min); 0±0 in data set [1] (0.2 μL per cm2, 5 min).
With `Cc1ccc(C(C)C)cc1O` [CRV, Carvacrol], the “Reduction of VUAA1-activated currents” value in data set [2] is recorded as approximately 85%. Besides, the “Normalized response (%) of AaegORco to VUAA1 in combination with compound” value in data set [2] is -84.8%. Further, in data set [3], the “Concentrations toxic to the cells” value is reported as “above 250 μM”. In addition, the Mean % repellency in data set [1] (setting [6]) was 67.8% and 67.8 ± 9%; in data set [1] (setting [7]) it was 99.1 ± 2%; in data set [1] (setting [5]) it was 99.8 ± 0.7%. In addition, the “Average landings (+ st. dev)” value in data set [1] (0.01 μL per cm2, 5 min) worked out at 17.6±4.9; in data set [1] (0.04 μL per cm2, 5 min), 0.5±1.1; in data set [1] (0.2 μL per cm2, 5 min), 0.1±0.4. Besides, the IC50 in data set [4] (setting [8]) was 26.3 µM; in data set [4] (setting [9]) it was 26.3 µM; in data set [4] (setting [10]), 23.4 µM; in data set [4] (setting [11]), 23.3 µM; in data set [4] (setting [12]), 28.4 µM; in data set [4] (setting [13]), 28.4 µM.
Turning to `CCC/C=C/C=C/C=O` [OCT, (2E,4E)-2,4-Octadienal], in data set [2], the “Reduction of VUAA1-activated currents” value is given as “approximately 60%”. Further, in data set [2], the “Normalized response (%) of AaegORco to VUAA1 in combination with compound” value is -59.5%. The Mean % repellency in data set [1] (setting [6]) was 13.8% and 13.8 ± 12.8%; in data set [1] (setting [7]), 97.9 ± 2.7%; in data set [1] (setting [5]) it was 100 ± 0%. Also, the “Average landings (+ st. dev)” value in data set [1] (0.01 μL per cm2, 5 min) is given as 47.1±7.0; in data set [1] (0.04 μL per cm2, 5 min) it was 1.1±1.5; in data set [1] (0.2 μL per cm2, 5 min) it was 0±0. The IC50 in data set [4] (setting [8]) is 41.8 µM; in data set [4] (setting [9]), 41.8 µM; in data set [4] (setting [10]), 59.8 µM; in data set [4] (setting [11]), 59.8 µM; in data set [4] (setting [12]) it was 117 µM; in data set [4] (setting [13]), 117 µM.
Regarding `CC1=CCC2[C@H](C1)C2(C)C` (stereo partly drawn) [CAR, (1S)-3-Carene], in data set [1] (setting [5]), the Mean % repellency came to 89.8 ± 4.3%. In data set [1] (0.2 μL per cm2, 5 min), the “Average landings (+ st. dev)” value was 5.4±2.3.
As for `C=CC(C)(CCC=C(C)C)OC(C)=O` (stereo not drawn) [LA, Linalyl acetate], the Mean % repellency in data set [1] (setting [5]) is reported as 72.3 ± 15.6%. Also, the “Average landings (+ st. dev)” value in data set [1] (0.2 μL per cm2, 5 min) is listed as 14.6±8.1.
As to `CC(C)c1ccc(CO)cc1` [CA, Cumin alcohol], the Mean % repellency in data set [1] (setting [6]) was 63.2% and 63.2 ± 11.8%; in data set [1] (setting [7]), 78 ± 7%; in data set [1] (setting [5]), 99.8 ± 0.7%. The “Average landings (+ st. dev)” value in data set [1] (0.01 μL per cm2, 5 min) stood at 20.1±6.5; in data set [1] (0.04 μL per cm2, 5 min), 11.8±3.7; in data set [1] (0.2 μL per cm2, 5 min), 0.1±0.4.
By EC50 is commonly meant the concentration that produces a half-maximal response. For the compound `CCc1ccc(NC(=O)CSc2nnc(-c3ccccn3)n2CC)cc1` [ORcoRAM2, reference compound], the concentration for a half-maximal effect (EC50) in data set [4] (absence of antagonist, read-out: EC50 of ORco agonist on AgamORco) was 91.3 µM and 91.9 µM and 91 µM.
